Where two headings read alike, the source gives them in different places. Where only a bound is given, the exact number is not on record here.

A short description of data set [1]: Cytotoxicity assay on human foreskin fibroblast (HFF), resazurin. It counts as cell-based. The note with it: human foreskin fibroblast (HFF) cells, tested up to 200 μM, read-out: HFF cytotoxic activity (EC50). As to the method: Cytotoxicity assay on human foreskin fibroblast (HFF): Toxicity of test compounds to mammalian cells was carried out using the resazurin assay previously described31 with slight modifications as follows. HFF cells were grown in a culture medium containing 500 mL of Dulbecco's modified Eagle's medium (DMEM; Sigma), 50 mL newborn calf serum (NBCS; Gibco), 5 mL penicillin/streptomycin (Gibco), and 5 mL of L‐Glutamax ([…], Gibco), at 37 °C and 5 % CO2 in vented flasks and passaged at 80–85 % of confluence. For the cytotoxicity assay, cells were suspended at 3×10^5 cells mL^−1 and 100 μL aliquots were added to each well of a 96‐well plate. The plate was incubated at 37 °C and 5 % CO2 for 24 h to allow cell adhesion. Serial test compounds dilution was performed in a different 96‐well plate and 100 μL of each dilution was transferred to each well containing cells, resulting in exposure of cells to 200–0.2 μM of test compound. Phenylarsine oxide (Sigma–Aldrich) was used as positive control and drug‐free incubation as negative control. The plates were incubated at 37 °C and 5 % CO2 for an additional 30 h, at which point 10 μL of resazurin solution ([…] in PBS) was added, followed by a final incubation for 24 h. The plates were read and the data analyzed as described above for the trypanosome assay.

The test system of the next data set is T. b. brucei B48. Nature of the data set: microbe, parasite or virus in culture. In kind it is cell-based, Trypanosoma brucei brucei. The note with it: for RF, resistance factor relative to WT (B48): B48 versus 427WT; for EC50: Trypanosoma brucei, read-out: EC50 T. b. b. B48. As to the method: (§1) Organisms and culture media: Only bloodstream trypomastigotes of T. b. brucei were used throughout this study. […] Parasites were cultured in vented flasks at 37 °C and 5 % CO2 atmosphere and they were passaged every 3 days. Bloodstream forms of T. congolense savannah‐type strain IL3000 were cultured in basal MEM medium, supplemented by 10 % fresh goat serum, 14 μL of β‐mercaptoethanol, 800 μL of 200 mM glutamine solution, and 10 mL of penicillin/streptomycin solution per liter of medium (pH 7.3).48 T. congolense were cultured in six‐well plates at 34 °C and 5 % CO2.
(§2) In brief, the assays were performed in 96‐well plates with 2×10^5 cells per well for T. b. brucei or 5×10^5 cells per well for T. congolense, in their respective culture media. First, 200 μL of test compounds’ solutions (400 μM, in T. brucei or T. congolense medium as appropriate) was added to the first well of each 12‐well row, from which doubling dilutions were conducted over one row per test compound. […] Fluorescence was detected using a FLUOstar Optima (BMG Labtech, Durham, NC, USA) at wavelength of 540 nm (excitation), 590 nm (emission). EC50 values were calculated by nonlinear regression using an equation for a sigmoidal dose–response curve with variable slope using Prism 5.0 (GraphPad Software Inc., San Diego, CA, USA).

Data set [2] concerns T. b. brucei aqp2/aqp3‐KO. Nature of the data set: microbe, parasite or virus in culture. In kind it is cell-based, Trypanosoma brucei brucei. The following applies: for EC50: Trypanosoma brucei, read-out: EC50 T. b. b. aqp2/aq3‐KO; for RF, resistance factor relative to WT (aqp2/aqp3-KO): aqp2/aqp3-KO versus 427WT. As to the method: as §1, §2
Data set [3] concerns T. b. brucei 427WT bloodstream trypomastigotes. Kind of data set: microbe, parasite or virus in culture. It counts as cell-based, Trypanosoma brucei brucei. The following applies: for SI, selectivity index=EC50(HFF)/EC50(T. b. b. WT): HFF versus T. b. b. 427WT; for RF, resistance factor (+ 5 mM glycerol versus control): Table 2; for EC50: Trypanosoma brucei; for fold more active than compound 4: trypanocidal activity relative to parent compound 4. As to the method:
as §1, §2

In a further data set the test system is HFF cells. Nature of the data set: ATP assay on HFF cells. It counts as cell-based, human. The note with it: 22 at 200 μM, oligomycin 2 μg/mL; 0, 4, 8 h. Here is the method: ATP assay on T. b. brucei and HFF cells: Changes in cellular ATP levels due to the exposure of trypanosomes to the test compounds (0.5×EC50) were monitored using the Molecular Probes ATP Determination Kit (A22066, Invitrogen Detection Technologies), based on the luciferin–luciferase bioluminescent enzymatic reaction. Bloodstream trypomastigote cultures of T. brucei s427WT were incubated with and without test compound, and, at each predetermined incubation time, 10^7 cells of each sample were transferred into a microfuge tube and centrifuged at 2000×g for 10 min at 4 °C. The pellet was washed twice with 1 mL of 50 mM Tris⋅HCl (pH 7.4) containing 0.1 mM DTT, and then resuspended in 200 μL of the same buffer. […] ATP levels were quantified using the contents of the kit following the manufacturer's instructions; 90 μL of standard reaction solution was added to each well of a 96‐well plate and the background luminescence was recorded in a FLUOstar OPTIMA fluorimeter; 10 μL of each sample was then added to each well. The plate was incubated at 28 °C for 15 min and the luminescence was measured, including a standard curve with an ATP concentration ranging from 1 nM to 1 μM to allow the calculation of the ATP concentrations in each sample. The ATP content was measured at 0, 0.5, 1, 2, 4, 8 and 12 h of incubation with test sample. […]

[4] abbreviates: 72 h, bloodstream trypomastigotes, resazurin, 48 h + 24 h, n=4, read-out: EC50 T. b. b. 427WT.
The mark [5] stands for this setting: Table 2, 5 mM glycerol in medium, average±SEM of three, read-out: EC50 s427WT + 5 mM glycerol.
The mark [6] stands for this setting: Table 2, no glycerol, average±SEM of three, read-out: EC50 Control s427WT.

For the compound `COc1cccc2c1C(=O)C=C(Oc1cccc(CCCCCCCCO)c1)C2=O` [Compound 20, 2‐(3‐(8‐Hydroxyoctyl)phenoxy)‐5‐methoxynaphthalene‐1,4‐dione], the EC50 at 54 h in data set [1] was over 200 µM. Further, in the data set on T. b. brucei B48, the “RF, resistance factor relative to WT (B48)” value was determined as 1.1 and the EC50 was determined as 5.3 ± 0.8 µM. For the same compound, in data set [2], the EC50 was 6.2 ± 0.58 µM and the “RF, resistance factor relative to WT (aqp2/aqp3-KO)” value amounted to 1.2. In data set [3], the “SI, selectivity index=EC50(HFF)/EC50(T. b. b. WT)” value is over 40; the “RF, resistance factor (+ 5 mM glycerol versus control)” value stood at 1.74; the “fold more active than compound 4” value is “up to 10 fold”. Further, the EC50 in data set [3] (setting [4]) is 5 ± 0.3 µM. Further, the EC50 in data set [3] (setting [5]) was 16 ± 0.2 µM. In data set [3] (setting [6]), the EC50 amounted to 9.2 ± 0.04 µM.
Take `O=C1C(Oc2cccc(CCCCCCCCO)c2)=CC(=O)c2c(O)cccc21` [Compound 22, 5‐Hydroxy‐2‐(3‐(8‐hydroxyoctyl)phenoxy)naphthalene‐1,4‐dione]: the EC50 at 54 h in data set [1] is over 200 µM. Also, in the data set with HFF cells, the “effect on cellular ATP levels of HFF cells” value is listed as “only a very minor effect on cellular ATP levels”. In the data set with T. b. brucei B48, the “RF, resistance factor relative to WT (B48)” value is on record as 0.91 and the EC50 was found to be 6.8 ± 0.1 µM. In addition, in data set [2], the EC50 was 7.3 ± 0.5 µM and the “RF, resistance factor relative to WT (aqp2/aqp3-KO)” value came to 0.96. Moreover, in data set [3], the “SI, selectivity index=EC50(HFF)/EC50(T. b. b. WT)” value is over 26.3; the “RF, resistance factor (+ 5 mM glycerol versus control)” value stood at 1.11; the “fold more active than compound 4” value was “up to 10 fold”. For the same compound, in data set [3] (setting [4]), the EC50 turned out to be 7.6 ± 0.7 µM. Further, the EC50 in data set [3] (setting [5]) was found to be 28.2 ± 0.2 µM. Moreover, the EC50 in data set [3] (setting [6]) worked out at 25.4 ± 1 µM.

The record behind these values is PMC6686156, “Discovery of Sustainable Drugs for Neglected Tropical Diseases: Cashew Nut Shell Liquid (CNSL)‐Based Hybrids Target Mitochondrial Function and ATP Production in Trypanosoma brucei” (Chemmedchem, 2019).
